According to patent US10125134B2 (Mirati Therapeutics, Inc., priority 2016, dated 2018):
Where two headings read alike, the source gives them in different places.

What was measured:
[1] = target: KRas G12C (Homo sapiens, UniProt P01116, C118S/C51S/C80L/G12C); assay: KRas G12C Modification Assay (LCMS detection of covalent adduct); assay type: binding; details: normalized percent of control; tested at 5 μM concentration for 3 hours
Summary of the method: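 Covalent modification was read by reverse-phase LC/MS of intact protein after compound exposure, each reaction stopped at its time point with 25 mM acetic acid. Unmodified-protein signal, taken as percent of total, was normalised to untreated protein and reported as POC.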

[2] = test system: NCI-H358 cells (express KRas G12C), Phospho-ERK; assay: Cellular inhibition of KRas G12C: Phospho-ERK in NCI-H358 cells; assay type: cell-based; details: Homo sapiens, pERK(Thr202/Tyr204) normalized with GAPDH, NCI-H358 cells, 3 hours, read-out: IC50
Summary of the method: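 IC50 derived by 4-parameter fit of GAPDH-normalized pERK(Thr202/Tyr204) signal, as percent of DMSO control. Signal came from in-cell immunodetection with infrared secondaries after 3 h compound exposure of KRas G12C NCI-H358 cells at 0.5% DMSO.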

C=CC(=O)N1CCN(c2nc(O[C@H](C)CN(C)C)nc3c2CCN(c2c(C)cccc2O)C3)CC1 [Example 95, (R)-1-(4-(2-((1-(dimethylamino)propan-2-yl)oxy)-7-(2-hydroxy-6-methylphenyl)-5,6,7,8-tetrahydropyrido[3,4-d]pyrimidin-4-yl)piperazin-1-yl)prop-2-en-1-one]
POC [1]: A (“A”≤25% POC)
IC50 [2]: > 1000 nM

C=CC(=O)N1CCN(c2nc(OCCCN3CCOCC3)nc3c2CCN(c2cc(O)ccc2OC(C)C)C3)CC1 [Example 96, 1-(4-(7-(5-hydroxy-2-isopropoxyphenyl)-2-(3-morpholinopropoxy)-5,6,7,8-tetrahydropyrido[3,4-d]pyrimidin-4-yl)piperazin-1-yl)prop-2-en-1-one]
POC [1]: A (“A”≤25% POC)
IC50 [2]: > 1000 nM

C=CC(=O)N1CCN(c2nc(OCCN3CCCC[C@H]3C)nc3c2CCN(c2cc(O)cc4ccccc24)C3)CC1 [Example 97, (R)-1-(4-(7-(3-hydroxynaphthalen-1-yl)-2-(2-(2-methylpiperidin-1-yl)ethoxy)-5,6,7,8-tetrahydropyrido[3,4-d]pyrimidin-4-yl)piperazin-1-yl)prop-2-en-1-one]
POC [1]: C (“C”>50% POC)
IC50 ([2]; NCI-H358, 3 h): 0.1 to 1000 nM

C=CC(=O)N1CCN(c2nc(OCCN3CCC[C@H](OC)C3)nc3c2CCN(c2cc(O)cc4ccccc24)C3)CC1 [Example 98, (S)-1-(4-(7-(3-hydroxynaphthalen-1-yl)-2-(2-(3-methoxypiperidin-1-yl)ethoxy)-5,6,7,8-tetrahydropyrido[3,4-d]pyrimidin-4-yl)piperazin-1-yl)prop-2-en-1-one]
POC [1]: C (“C”>50% POC)
IC50 ([2]; NCI-H358, 3 h): > 1000 nM

C=CC(=O)N1CCN(c2nc(OCCN3CCC[C@@H](OC)C3)nc3c2CCN(c2cc(O)cc4ccccc24)C3)CC1 [Example 99, (R)-1-(4-(7-(3-hydroxynaphthalen-1-yl)-2-(2-(3-methoxypiperidin-1-yl)ethoxy)-5,6,7,8-tetrahydropyrido[3,4-d]pyrimidin-4-yl)piperazin-1-yl)prop-2-en-1-one]
POC [1]: C (“C”>50% POC)
IC50 ([2]; NCI-H358, 3 h): > 1000 nM

C=CC(=O)N1CCN(c2nc(OC3CCN(C4CC4)CC3)nc3c2CCN(c2cc(O)cc4ccccc24)C3)CC1 [Example 100, 1-(4-(2-((1-cyclopropylpiperidin-4-yl)oxy)-7-(3-hydroxynaphthalen-1-yl)-5,6,7,8-tetrahydropyrido[3,4-d]pyrimidin-4-yl)piperazin-1-yl)prop-2-en-1-one]
POC [1]: C (“C”>50% POC)
IC50 ([2]; NCI-H358, 3 h): > 1000 nM

C=CC(=O)N1CCN(c2nc(OCCCN3CCCOCC3)nc3c2CCN(c2cc(O)cc4ccccc24)C3)CC1 [Example 101, 1-(4-(2-(3-(1,4-oxazepan-4-yl)propoxy)-7-(3-hydroxynaphthalen-1-yl)-5,6,7,8-tetrahydropyrido[3,4-d]pyrimidin-4-yl)piperazin-1-yl)prop-2-en-1-one]
POC [1]: C (“C”>50% POC)
IC50 ([2]; NCI-H358, 3 h): 0.1 to 1000 nM

C=CC(=O)N1CCN(c2nc(OCCN(CC)CC)nc3c2CCN(c2cc(O)cc4ccccc24)C3)CC1 [Example 102]
POC [1]: C (“C”>50% POC)
IC50 ([2]; NCI-H358, 3 h): 0.1 to 1000 nM

C=CC(=O)N1CCN(c2nc(OCC3CCN(CCOC)C3)nc3c2CCN(c2cc(O)cc4ccccc24)C3)CC1 (stereo not drawn) [Example 103, 1-(4-(7-(3-hydroxynaphthalen-1-yl)-2-((1-(2-methoxyethyl)pyrrolidin-3-yl)methoxy)-5,6,7,8-tetrahydropyrido[3,4-d]pyrimidin-4-yl)piperazin-1-yl)prop-2-en-1-one]
POC [1]: C (“C”>50% POC)
IC50 ([2]; NCI-H358, 3 h): 0.1 to 1000 nM

C=CC(=O)N1CCN(c2nc(OCCCN3C[C@@H]4C[C@H]3CO4)nc3c2CCN(c2cc(O)cc4ccccc24)C3)CC1 [Example 104, 1-(4-(2-(3-((1 S,4S)-2-oxa-5-azabicyclo[2.2.1]heptan-5-yl)propoxy)-7-(3-hydroxynaphthalen-1-yl)-5,6,7,8-tetrahydropyrido[3,4-d]pyrimidin-4-yl)piperazin-1-yl)prop-2-en-1-one]
POC [1]: C (“C”>50% POC)
IC50 ([2]; NCI-H358, 3 h): 0.1 to 1000 nM

C=CC(=O)N1CCN(c2nc(OCCCN3CCOCC3)nc3c2CCN(c2cc(O)ccc2C)C3)CC1 [Example 105, 1-(4-(7-(5-hydroxy-2-methylphenyl)-2-(3-morpholinopropoxy)-5,6,7,8-tetrahydropyrido[3,4-d]pyrimidin-4-yl)piperazin-1-yl)prop-2-en-1-one]
POC [1]: B (“B”>25% POC−≤50% POC)
IC50 [2]: > 1000 nM

C=CC(=O)N1CCN(c2nc(OCCCN3CCOCC3)nc3c2CCN(c2ccc(O)cc2OC(F)(F)F)C3)CC1 [Example 106, 1-(4-(7-(4-hydroxy-2-(trifluoromethoxy)phenyl)-2-(3-morpholinopropoxy)-5,6,7,8-tetrahydropyrido[3,4-d]pyrimidin-4-yl)piperazin-1-yl)prop-2-en-1-one]
POC [1]: A (“A”≤25% POC)
IC50 [2]: > 1000 nM

C=CC(=O)N1CCN(c2nc(OCCN(C)CCOC)nc3c2CCN(c2cc(O)cc4ccccc24)C3)CC1 [Example 107, 1-(4-(7-(3-hydroxynaphthalen-1-yl)-2-(2-((2-methoxyethyl)(methyl)amino)ethoxy)-5,6,7,8-tetrahydropyrido[3,4-d]pyrimidin-4-yl)piperazin-1-yl)prop-2-en-1-one]
POC [1]: C (“C”>50% POC)
IC50 ([2]; NCI-H358, 3 h): > 1000 nM

C=CC(=O)N1CCN(c2nc(OCCN3CCC(OC)CC3)nc3c2CCN(c2cc(O)cc4ccccc24)C3)CC1 [Example 108, 1-(4-(7-(3-hydroxynaphthalen-1-yl)-2-(2-(4-methoxypiperidin-1-yl)ethoxy)-5,6,7,8-tetrahydropyrido[3,4-d]pyrimidin-4-yl)piperazin-1-yl)prop-2-en-1-one]
POC [1]: C (“C”>50% POC)
IC50 ([2]; NCI-H358, 3 h): 0.1 to 1000 nM

C=CC(=O)N1CCN(c2nc(OCCN3CCC(F)(F)CC3)nc3c2CCN(c2cc(O)cc4ccccc24)C3)CC1 [Example 109, 1-(4-(2-(2-(4,4-difluoropiperidin-1-yl)ethoxy)-7-(3-hydroxynaphthalen-1-yl)-5,6,7,8-tetrahydropyrido[3,4-d]pyrimidin-4-yl)piperazin-1-yl)prop-2-en-1-one]
POC [1]: C (“C”>50% POC)
IC50 ([2]; NCI-H358, 3 h): > 1000 nM

C=CC(=O)N1CCN(c2nc(OC[C@@H]3CCN(C)C3)nc3c2CCN(c2cc(O)cc4ccccc24)C3)CC1 [Example 110, (R)-1-(4-(7-(3-hydroxynaphthalen-1-yl)-2-((1-methylpyrrolidin-3-yl)methoxy)-5,6,7,8-tetrahydropyrido[3,4-d]pyrimidin-4-yl)piperazin-1-yl)prop-2-en-1-one]
POC [1]: C (“C”>50% POC)
IC50 ([2]; NCI-H358, 3 h): 0.1 to 1000 nM

C=CC(=O)N1CCN(c2nc(OCCN3CCC[C@H](F)C3)nc3c2CCN(c2cc(O)cc4ccccc24)C3)CC1 [Example 111, (S)-1-(4-(2-(2-(3-fluoropiperidin-1-yl)ethoxy)-7-(3-hydroxynaphthalen-1-yl)-5,6,7,8-tetrahydropyrido[3,4-d]pyrimidin-4-yl)piperazin-1-yl)prop-2-en-1-one]
POC [1]: C (“C”>50% POC)
IC50 ([2]; NCI-H358, 3 h): 0.1 to 1000 nM

C=CC(=O)N1CCN(c2nc(OCCCN3CCOCC3)nc3c2CCN(c2cc(C(F)F)cc4ccccc24)C3)CC1 [Example 112, 1-(4-(7-(3-(difluoromethyl)naphthalen-1-yl)-2-(3-morpholinopropoxy)-5,6,7,8-tetrahydropyrido[3,4-d]pyrimidin-4-yl)piperazin-1-yl)prop-2-en-1-one]
POC [1]: A (“A”≤25% POC)
IC50 [2]: > 1000 nM

C=CC(=O)N1CCN(c2ncnc3c2CC(=O)N(c2cc(O)cc4ccccc24)C3)CC1 [Example 113, 4-(4-acryloylpiperazin-1-yl)-7-(3-hydroxynaphthalen-1-yl)-7,8-dihydropyrido[3,4-d]pyrimidin-6(5H)-one]
POC [1]: C (“C”>50% POC)
IC50 [2]: > 1000 nM

C=CC(=O)N1CC2(C1)CN(c1ncnc3c1CC(=O)N(c1cc(O)cc4ccccc14)C3)C2 [Example 114, 4-(6-acryloyl-2,6-diazaspiro[3.3]heptan-2-yl)-7-(3-hydroxynaphthalen-1-yl)-7,8-dihydropyrido[3,4-d]pyrimidin-6(5H)-one]
POC [1]: B (“B”>25% POC−≤50% POC)
IC50 [2]: > 1000 nM

C=CC(=O)N1CCN(c2nc(O[C@H](C)CN(C)C)nc3c2CCN(c2cc(O)cc4ccccc24)C3)[C@@H](C)C1 [Example 115, 1-((S)-4-(2-(((R)-1-(dimethylamino)propan-2-yl)oxy)-7-(3-hydroxynaphthalen-1-yl)-5,6,7,8-tetrahydropyrido[3,4-d]pyrimidin-4-yl)-3-methylpiperazin-1-yl)prop-2-en-1-one]
POC [1]: C (“C”>50% POC)
IC50 [2]: 0.1 to 1000 nM

C=CC(=O)N1CCN(c2nc(OCCN(C)C)nc3c2CCN(c2cc(O)cc4ccccc24)C3)[C@@H](C)C1 [Example 116, (S)-1-(4-(2-(2-(dimethylamino)ethoxy)-7-(3-hydroxynaphthalen-1-yl)-5,6,7,8-tetrahydropyrido[3,4-d]pyrimidin-4-yl)-3-methylpiperazin-1-yl)prop-2-en-1-one]
POC [1]: C (“C”>50% POC)
IC50 ([2]; NCI-H358, 3 h): 0.1 to 1000 nM

C=CC(=O)N1CCN(c2nc(OCCN3CCOCC3)nc3c2CCN(c2cc(O)cc4ccccc24)C3)CC1 [Example 117, 1-(4-(7-(3-hydroxynaphthalen-1-yl)-2-(2-morpholinoethoxy)-5,6,7,8-tetrahydropyrido[3,4-d]pyrimidin-4-yl)piperazin-1-yl)prop-2-en-1-one]
POC [1]: C (“C”>50% POC)
IC50 ([2]; NCI-H358, 3 h): > 1000 nM

C=CC(=O)N1CCN(c2nc(N3CCOCC3)nc3c2CCN(c2cc(O)cc4ccccc24)C3)CC1 [Example 118, 1-(4-(7-(3-hydroxynaphthalen-1-yl)-2-morpholino-5,6,7,8-tetrahydropyrido[3,4-d]pyrimidin-4-yl)piperazin-1-yl)prop-2-en-1-one]
POC [1]: A (“A”≤25% POC)
IC50 ([2]; NCI-H358, 3 h): > 1000 nM
